According to patent publication US20210101879A1, “AMYLOID PROTEIN-SELECTIVE BACE INHIBITORS (ASBIs) FOR ALZHEIMER?S DISEASE” (The Regents of the University of California, priority 2018, published 2021):
Values joined by “and” are separate entries in the source; they are usually repeats but may differ in a detail not shown here. Identical values can stand only once. Like-named read-outs stand apart in the source and are kept apart here.

What was measured:
BACE-1 = BACE-1 (Homo sapiens (Human), UniProt P56817); experiment: cell-free BACE enzyme assay with P5-P5′ substrate; assay type: biochemical
Description: For the assay, 4 μL of assay buffer was added to each well, followed by 2 μL of BACE-1 diluted in assay buffer to 7.5 ng/μL. Then, 2 μL of inhibitor, at concentrations along an 11 pt. two-fold dilution series starting at 0.5 μM, were added to appropriate wells and incubated for 30 minutes at room temperature. Afterwards, 2 μL of P5-P5′ BACE-1 substrate, diluted to 50 μM in assay buffer, were added to each well, after which the signal generated was read every 30 minutes at 25° C. for 2 hr.

PAMPA = assay type: in vitro ADME
Cathepsin D (CatD) = Cathepsin D (CatD) (Homo sapiens (Human), UniProt P07339); experiment: Cathepsin-D assay; assay type: biochemical
Description: For the assay, 4 μL of assay buffer was added to each well, followed by 2 μL of Cathepsin D (CatD) diluted in assay buffer to 5 ng/μL. Then, 2 μL of inhibitor, prepared to get a testing concentration of 20 μM, were added to appropriated wells and incubated for 30 minutes at room temperature. Afterwards, 2 μL of CatD substrate, diluted to 50 μM in assay buffer, were added to each well, after which the signal generated was read every 30 minutes at 25° C. for 1 hr. Signals shown in FIG. 6 are representative of readings at 1 hr.

[1] = tested on: CHO-7W cells (stably transfected with human amyloid precursor protein wildtype); experiment: CHO-7W cell assay (AlphaLISA of media); assay type: cell-based, Chinese hamster; details: treatment for 24 hours
Description: For the assay, 50 μL of CHO-7W cells were added to each well at 4×10^5 cells/mL. Then, 50 μL of inhibitor, prepared for tested concentrations, were added to appropriated wells and incubated for 24 hours at 37° C. Afterwards, media from each well is collected and assayed using an AlphaLISA assay for respective analytes.

pharmacokinetics in mice = assay type: in vivo
[2] = cell-free, several replicate values per cell, some flagged 's' (flag not defined), read-out: BACE1 IC50

Chain of BACE-1 (P56817 46-501): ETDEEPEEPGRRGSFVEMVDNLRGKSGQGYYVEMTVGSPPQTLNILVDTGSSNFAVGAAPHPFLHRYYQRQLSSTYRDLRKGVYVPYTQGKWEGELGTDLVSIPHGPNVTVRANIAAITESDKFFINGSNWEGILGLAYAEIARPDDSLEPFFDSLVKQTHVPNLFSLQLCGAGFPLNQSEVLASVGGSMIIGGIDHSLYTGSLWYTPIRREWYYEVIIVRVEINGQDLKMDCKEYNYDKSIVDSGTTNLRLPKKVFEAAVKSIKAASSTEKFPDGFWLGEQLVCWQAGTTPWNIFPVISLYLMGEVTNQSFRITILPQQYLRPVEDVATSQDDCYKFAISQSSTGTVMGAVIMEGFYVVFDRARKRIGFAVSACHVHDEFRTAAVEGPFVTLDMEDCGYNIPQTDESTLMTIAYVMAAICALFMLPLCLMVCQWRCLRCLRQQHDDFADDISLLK
Chain of Cathepsin D (CatD) (P07339 65-412, species assumed): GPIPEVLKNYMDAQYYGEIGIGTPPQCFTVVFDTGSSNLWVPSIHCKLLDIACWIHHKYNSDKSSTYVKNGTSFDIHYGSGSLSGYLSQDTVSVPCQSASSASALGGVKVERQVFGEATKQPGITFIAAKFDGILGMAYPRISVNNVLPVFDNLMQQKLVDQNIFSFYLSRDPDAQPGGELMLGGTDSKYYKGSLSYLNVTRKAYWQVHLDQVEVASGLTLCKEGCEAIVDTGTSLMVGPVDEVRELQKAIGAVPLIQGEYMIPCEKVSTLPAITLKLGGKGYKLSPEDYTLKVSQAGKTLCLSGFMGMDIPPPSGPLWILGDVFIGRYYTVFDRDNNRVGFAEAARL

Compound | IC50 (BACE-1; [2]) | PAMPA (PAMPA) | further results
CC#Cc1cncc(-c2cc(C3(c4ccnc(C(F)F)c4)N=C(N)N(C)C3=O)ccc2F)c1 (stereo not shown) [FAH-152] | 20 nM | 0.46 | –
COCc1cccc(C2(c3ccc(OC(F)F)c(C)c3)N=C(N)N(C)C2=O)c1 (stereo not shown) [FAH-44] | – | 0.91 | –
CN1C(=O)C(c2ccc(OCF)cc2)(c2cccc(-c3cncnc3)c2)N=C1N (stereo not shown) [FAH-84] | – | 0.30 | –
Cc1cc(C2(c3cc(-c4cncnc4)ccc3F)N=C(N)N(C)C2=O)ccc1OC(F)F (stereo not shown) [FAH-156] | 200 nM | 0.25 | –
CN1C(=O)C(c2cccc(-c3cncnc3)c2)(c2ccc3c(c2)OCO3)N=C1N (stereo not shown) [FAH-136] | 250 nM | 0.30 | –
Cc1cc(C2(c3cccc(-c4cnccn4)c3)N=C(N)N(C)C2=O)ccc1OC(F)F (stereo not shown) [FAH-86] | – | 0.68 | IC50 (Cathepsin D (CatD)): > 50000 nM
Cc1cc(C2(c3cccc(-c4ccnnc4)c3)N=C(N)N(C)C2=O)ccc1OC(F)F (stereo not shown) [FAH-72] | 140 nM and 100 nM and 49 nM and 87 nM and 93 nM | 0.37 | –
CCCC1CC(C2(c3ccc(OC(F)F)c(C)c3)N=C(N)N(C)C2=O)CCN1C (stereo not shown) [FAH-68] | 16100 nM | 0.20 | –
CN1C(=O)C(c2cccc(-c3cncnc3)c2)(c2ccc3c(c2)OC(F)(F)O3)N=C1N (stereo not shown) [FAH-137] | 460 nM | 0.59 | –
CN1C(=O)C(c2cccc(-c3cncnc3)c2)(c2ccc3occc3c2)N=C1N (stereo not shown) [FAH-116] | 270 nM and 260 nM | 0.52 | –
Cc1cc(C2(c3cccc(-c4ccco4)c3)N=C(N)N(C)C2=O)ccc1OC(F)F (stereo not shown) [FAH-82] | 780 nM and 450 nM and 2400 nM | – | –
CCCc1cncc(-c2cccc(C3(C(C)C)N=C(N)N(C)C3=O)c2)n1 (stereo not shown) [FAH-106] | 2180 nM and 3160 nM | 2.36 | –
Cc1cc(C2(c3cccc(F)c3)N=C(N)N(C)C2=S)ccc1OC(F)F (stereo not shown) [FAH-31] | 4340 nM and 3960 nM | 3.07 | –
CC1CCN(c2cccc(C3(c4ccc(OC(F)F)cc4)N=C(N)N(C)C3=O)c2)C1 (stereo not shown) [FAH-88] | 840 nM and 600 nM and 2130 nM | 4.53 2-peaks | –
CC#Cc1cc(C2(c3ccc(OC(F)F)c(C)c3)N=C(N)N(C)C2=O)ccn1 (stereo not shown) [FAH-57] | 440 nM and 510 nM | 0.61 | amyloid-beta (Aβ) [1]: significantly decreased; soluble amyloid precursor protein beta (sAPPβ) [1]: significantly decreased
CC#Cc1cncc(-c2cccc(C3(C(C)C)N=C(N)N(C)C3=O)c2)n1 (stereo not shown) [FAH-101] | – | 1.71 | –
COc1cc(C2(c3ccc(OC(F)F)c(C)c3)N=C(N)N(C)C2=O)ccn1 (stereo not shown) [FAH-48] | 4350 nM | 0.68 | –
Cc1cc(C2(c3cncc(F)c3)N=C(N)N(C)C2=O)ccc1OC(F)F (stereo not shown) [FAH-37] | 1930 nM | 0.54 | –
Cc1cc(C2(c3ccnc(F)c3)N=C(N)N(C)C2=O)ccc1OC(F)F (stereo not shown) [FAH-46] | 2990 nM | 0.65 | –
Cc1cc(C2(c3cccc(-c4cncc(C5CC5)c4)c3)N=C(N)N(C)C2=O)ccc1OC(F)F (stereo not shown) [FAH-111] | 80 nM and 110 nM | solubility issue | –
Cc1cc(C2(c3cccc(-c4cccnc4)c3)N=C(N)N(C)C2=O)ccc1OC(F)F (stereo not shown) [FAH-32] | 11 nM and 16 nM and 17 nM | 0.91 and 0.92 | IC50 (Cathepsin D (CatD)): > 100000 nM
CNCc1cccc(C2(c3ccc(OC(F)F)c(C)c3)N=C(N)N(C)C2=O)c1 (stereo not shown) [FAH-62] | – | 0.35 | –
Cc1cc(C2(c3ccc(OC(F)F)c(C)c3)N=C(N)N(C)C2=O)ccn1 (stereo not shown) [FAH-47] | 3050 nM | 0.46 | –
Cc1cc(C2(c3cccc(-c4cnco4)c3)N=C(N)N(C)C2=O)ccc1OC(F)F (stereo not shown) [FAH-43] | 140 nM and 230 nM and 490 nM | 0.79 | amyloid-beta (Aβ) [1]: significantly decreased; soluble amyloid precursor protein beta (sAPPβ) [1]: significantly decreased

Compound | IC50 (BACE-1; [2]) | PAMPA (PAMPA) | further results
Cc1cc(C2(c3cncnc3)N=C(N)N(C)C2=O)ccc1OC(F)F (stereo not shown) [FAH-33] | > 5000 nM | 0.24 | –
CN1C(=O)C(c2cc(-c3cncc(F)c3)ccc2F)(C2CC2)N=C1N (stereo not shown) [FAH-126] | – | – | BACE1 IC50 (μM) (BACE-1; cell-free, several replicate values per cell, some flagged 's' (flag not defined)): inactive
Cc1cc(C2(C3CCN(C)CC3)N=C(N)N(C)C2=O)ccc1OC(F)F (stereo not shown) [FAH-67] | – | 0.20 | –
Cc1cc(C2(c3cccc(C4CNC4)c3)N=C(N)N(C)C2=O)ccc1OC(F)F (stereo not shown) [FAH-64] | – | 0.35 | –
COCc1cc(C2(c3ccc(OC(F)F)c(C)c3)N=C(N)N(C)C2=O)ccn1 (stereo not shown) [FAH-53] | – | 0.26 | –
Cc1cc(C2(c3cccc(-c4cnc(N)nc4)c3)N=C(N)N(C)C2=O)ccc1OC(F)F (stereo not shown) [FAH-110] | 47 nM and 38 nM | 0.46 | IC50 (BACE-1; cell-free BACE assay): 43 nM
Cc1cc(C2(C3CCCC(c4cncnc4)C3)N=C(N)N(C)C2=O)ccc1OC(F)F (stereo not shown) [FAH-85] | 220 nM | 0.51 2 peaks | –
Cc1cc(C2(c3cccc(-c4cncc(F)c4)c3)N=C(N)N(C)C2=O)ccc1OC(F)F (stereo not shown) [FAH-66] | 18 nM and 12 nM and 19 nM and 47 nM and 28 nM and 36 nM | 1.15 | amyloid-beta (Aβ) [1]: significantly decreased; soluble amyloid precursor protein beta (sAPPβ) [1]: significantly decreased
Cc1cc(C2(C3CCCC(c4ncco4)C3)N=C(N)N(C)C2=O)ccc1OC(F)F (stereo not shown) [FAH-69] | 110 nM and 210 nM and 120 nM and 430 nM | 0.92 | –
Cc1cc(C2(c3cccc(NC(=O)N(C)C)c3)N=C(N)N(C)C2=O)ccc1OC(F)F (stereo not shown) [FAH-99] | 150 nM and 210 nM | 0.38 | –
CN1C(=O)C(c2ccc(OC(F)F)cc2)(c2cccc(-c3cncnc3)c2)N=C1N (stereo not shown) [FAH-74] | 4.2 nM and 2.5 nM and 5.7 nM and 7.5 nM and 15 nM and 23 nM | 0.36 | IC50 (BACE-1; cell-free BACE assay): 13 nM
Cc1cc(C2(C3CCCCC3)N=C(N)N(C)C2=O)ccc1OC(F)F (stereo not shown) [FAH-59] | 720 nM | 4.43 | –
Cc1cccc(C2(c3cccc(-c4cccnc4)c3)N=C(N)N(C)C2=O)c1 (stereo not shown) [FAH-75] | 210 nM and 240 nM and 150 nM and 420 nM | 0.62 | –
CN1C(=O)C(c2cccc(-c3cncnc3)c2)(c2ccc3c(c2)CCO3)N=C1N (stereo not shown) [FAH-117] | 1370 nM and 410 nM | 0.32 | –
Cc1ncc(-c2cccc(C3(C4CC4)N=C(N)N(C)C3=O)c2)cn1 (stereo not shown) [FAH-107] | 8870 nM and 4930 nM and 6880 nM | 0.40 | –
Cc1cc(C2(c3cocn3)N=C(N)N(C)C2=O)ccc1OC(F)F (stereo not shown) [FAH-38] | > 5000 nM | 3.46 | –
Cc1cc(C2(c3cccc(-c4ccncn4)c3)N=C(N)N(C)C2=O)ccc1OC(F)F (stereo not shown) [FAH-87] | 300 nM and 340 nM and 420 nM and 290 nM | 0.58 | –
Cc1cc(C2(c3cccc(-c4ccccc4)c3)N=C(N)N(C)C2=O)ccc1OC(F)F (stereo not shown) [FAH-73] | 530 nM and 690 nM | 5.11 | –
CNCCc1cccc(C2(c3ccc(OC(F)F)c(C)c3)N=C(N)N(C)C2=O)c1 (stereo not shown) [FAH-63] | – | 0.38 | –
CN1C(=O)C(c2cnc(OC(F)F)nc2)(c2cccc(F)c2)N=C1N (stereo not shown) [FAH-83] | 2910 nM and 2330 nM and 9190 nM | 0.51 and 0.53 | –
CN1C(=O)C(C)(c2cccc(-c3cncnc3)c2)N=C1N (stereo not shown) [FAH-100] | 2310 nM and 4850 nM | 0.27 | –
Cc1cc(C2(c3ccc(F)c(-c4cncnc4)c3)N=C(N)N(C)C2=O)ccc1OC(F)F (stereo not shown) [FAH-127, 2-amino-5-(4-(difluoromethoxy)-3-methylphenyl)-5-(4-fluoro-3-(pyrimidin-5-yl)phenyl)-3-methyl-3,5-dihydro-4H-imidazol-4-one] | 14 nM and 13 nM and 5 nM and 24.6 nM | 0.53 and 0.49 and 0.50 | IC50 (BACE-1; cell-free BACE assay): 13 nM; brain penetrance (pharmacokinetics in mice): good brain-penetrance; brain peak (pharmacokinetics in mice; at 1 hour): ~3000 (range 600-6000) ng/g
Cc1cc(C2(c3cccc(F)c3)N=C(N)N(Cc3ccccc3)C2=O)ccc1OC(F)F (stereo not shown) [FAH-42] | – | 2.29 | –
CN1C(=O)C(c2cccc(-c3cncnc3)c2)(c2ccc3c(c2)OCCO3)N=C1N (stereo not shown) [FAH-135] | 210 nM | 0.26 | –
